Results taken from PubChem BioAssay (NCI).
“And” between values parts separate entries of the source, which are not always exact repeats. Equal values may be shown once.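 Assay format: 96-well plates, 48-hour exposure. The concentration for 50% growth inhibition is given as GI50. TGI: total growth inhibition.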

Key:
Test in all cases: NCI tumour cell line growth inhibition, 48 h
COLO 205 colon = test system: COLO 205 colon
MDA-MB-231 breast = test system: MDA-MB-231 breast
DU-145 prostate = test system: DU-145 prostate
MCF7 breast = test system: MCF7 breast
OVCAR-5 ovarian = test system: OVCAR-5 ovarian
T-47D breast = test system: T-47D breast
HCC-2998 colon = test system: HCC-2998 colon
HCT-116 colon = test system: HCT-116 colon
UO-31 renal = test system: UO-31 renal
RPMI-8226 leukemia = test system: RPMI-8226 leukemia

| SMILES | GI50 (COLO 205 colon) | TGI (COLO 205 colon) | GI50 (MDA-MB-231 breast) | TGI (MDA-MB-231 breast) | GI50 (DU-145 prostate) | TGI (DU-145 prostate) | GI50 (MCF7 breast) | TGI (MCF7 breast) | GI50 (OVCAR-5 ovarian) | TGI (OVCAR-5 ovarian) | GI50 (T-47D breast) | TGI (T-47D breast) | GI50 (HCC-2998 colon) | TGI (HCC-2998 colon) | GI50 (HCT-116 colon) | TGI (HCT-116 colon) | GI50 (UO-31 renal) | TGI (UO-31 renal) | GI50 (RPMI-8226 leukemia) | TGI (RPMI-8226 leukemia) |
| --- | --- | --- | --- | --- | --- | --- | --- | --- | --- | --- | --- | --- | --- | --- | --- | --- | --- | --- | --- | --- |
| C=C(C)[C@@H]1CC[C@]2(CN)CC[C@]3(C)[C@H](CC[C@@H]4[C@@]5(C)CCC(N)[C@@](C)(CO)[C@@H]5CC[C@]43C)[C@@H]12 (some centres undefined) | 1.75 µM | 3.38 µM | 1.84 µM | 3.32 µM | 1.66 µM | 3.17 µM | 1.53 µM | 3.2 µM | 1.73 µM | 3.15 µM | 1.93 µM | 3.84 µM | 1.77 µM | 3.24 µM | 1.61 µM | 3.05 µM | 1.6 µM | 2.96 µM | 1.77 µM | 3.94 µM |
| CCCCCCCCCCCCC(NC(C)=O)(C(=O)OCC)C(=O)OCC | 12.8 µM | 26.3 µM | 12.6 µM | 26.7 µM | 15.1 µM | 28.6 µM | 7.41 µM | 21.2 µM | 13.7 µM | 27.3 µM | 5.43 µM | 20.7 µM | 12.5 µM | 26.2 µM | 5.83 µM | 19.2 µM | 7.39 µM | 27.5 µM | 10.8 µM | 44.8 µM |
| CCCCCCC/C=C1\CCC(CN(C)C)C1=O (centres undefined) | – | 25.5 µM | – | 8.72 µM | – | 27.8 µM | – | 16.4 µM | – | 36.7 µM | – | 26.7 µM | – | 32.1 µM | – | 22.3 µM | – | 29.1 µM | – | 5.26 µM |
| CN(C)C1C(=O)C(C(N)=O)=C(O)C2(O)C(=O)C3=C(O)c4c(O)cccc4C(C)(O)C3CC12 (centres undefined) | 25.7 µM and > 100 µM | 72.2 µM and > 100 µM | 26.2 µM and > 100 µM | > 100 µM | – | > 100 µM | – | > 100 µM | – | > 100 µM | – | > 100 µM | > 100 µM and 42.7 µM | > 100 µM | 23.7 µM and > 100 µM | 39.2 µM and > 100 µM | 41.9 µM and > 100 µM | > 100 µM | – | > 100 µM |
| CN[C@H]1CC[C@]23C[C@]24CC[C@]2(C)[C@@H]([C@H](C)N(C)C)CC[C@@]2(C)[C@@H]4CC[C@H]3C1(C)C | – | 25.2 µM | – | 38.2 µM | – | 28.4 µM | – | 36.2 µM | – | 60.7 µM | – | 35.2 µM | – | 28.7 µM | – | 24 µM | – | 24.5 µM | – | 31.3 µM |
| COC(=O)CCCNC(=O)C(=O)c1c(O)c(O)c(C(C)C)c2cc(C)c(-c3c(C)cc4c(C(C)C)c(O)c(O)c(C(=O)C(=O)NCCCC(=O)OC)c4c3O)c(O)c12 | 0.382 µM | 2.03 µM | 0.743 µM | 2.99 µM | 0.556 µM | 3.74 µM | 0.641 µM | 4.71 µM | 0.781 µM | > 32.5 µM | 0.558 µM | 3.06 µM | 0.679 µM | 7.98 µM | 0.156 µM | 2.31 µM | 0.558 µM | 4.05 µM | 0.592 µM | > 32.5 µM |
| Cc1ccccc1C[P+](c1ccccc1)(c1ccccc1)c1ccccc1 | 1.16 µM | 3.28 µM | 2.04 µM | > 100 µM | 2.18 µM | > 100 µM | 0.649 µM | 39.6 µM | 2.86 µM | > 100 µM | 0.294 µM | 14.9 µM | 0.888 µM | 24.2 µM | 0.896 µM | > 100 µM | 40.5 µM | > 100 µM | 0.39 µM | 5.4 µM |
| O=C1c2ccccc2-c2c1c1ccc([N+](=O)[O-])cc1c(=O)n2CCCn1ccnc1 | 4.57 µM | > 38.5 µM | 0.15 µM | 0.408 µM | < 0.0152 µM | 0.0542 µM | < 0.018 µM | 4.24 µM | 0.984 µM | 4.25 µM | – | > 33.3 µM | 2 µM | 5.57 µM | 0.0763 µM | 0.652 µM | 0.724 µM | 2.62 µM | 0.0153 µM | 0.0653 µM |
| Cc1ccc2c(c1)-c1oc(=O)c(-c3cc4ccccc4oc3=O)cc1C(O)O2 (centres undefined) | 18.7 µM | 41.7 µM | 15.2 µM | 43.7 µM | 11.6 µM | 23.8 µM | 31.7 µM | > 100 µM | 20.8 µM | 49.8 µM | 21.3 µM | 41.7 µM | 18.5 µM | 36.2 µM | 18 µM | 33 µM | 16.7 µM | 37.3 µM | 35.1 µM | > 100 µM |
| N#Cc1ccc(NC(=O)Nc2nc3ccc(OC(F)(F)F)cc3s2)cc1 | 1.68 µM | 3.9 µM | 0.935 µM | 3.65 µM | 2.7 µM | 13.6 µM | 1 µM | 11.6 µM | 4.28 µM | 16.1 µM | 0.428 µM | 5.8 µM | 1.28 µM | 6.04 µM | 0.552 µM | 2.87 µM | 1.67 µM | 7.92 µM | 1 µM | 13.3 µM |
| Clc1ccc(COC(Cn2ccnc2)c2ccc(Cl)cc2Cl)c(Cl)c1 (centres undefined) | 1.62 µM and 10.1 µM and 3.78 µM | 3.18 µM and 22.1 µM and 16.1 µM | 2.15 µM | 12.9 µM and 26.2 µM and 24.6 µM | 11.3 µM | 23.5 µM and 29.6 µM and 25.6 µM | 3.57 µM | 12.4 µM and 27.8 µM and 33.3 µM | 9.81 µM | 21.7 µM and 32.4 µM and 25.8 µM | 2 µM | 8.33 µM and 24.6 µM and 21.6 µM | 3.78 µM | 14.9 µM and 35.6 µM and 26.3 µM | 2.87 µM | 11.3 µM and 18.4 µM and 17.7 µM | 2.3 µM | 12.4 µM and 16.5 µM and 13.6 µM | 3.67 µM | 18.8 µM and 37.7 µM |
| COC1C(O)CC(OC2CC(OC3CC(O[C@@H]4C(=O)c5c(cc6cc(OC7CC(OC8CC(O)C(O)C(C)O8)C(O)C(C)O7)c(C)c(O)c6c5O)CC4[C@H](OC)[C@@H](O)C(C)=O)OC(C)C3O)OC(C)C2O)OC1C (some centres undefined) | 0.0113 µM | 0.0639 µM | 0.051 µM | > 33.3 µM | 0.0127 µM | > 33.3 µM | 0.00649 µM | > 33.3 µM | 0.0309 µM | > 33.3 µM | 0.0124 µM | 0.307 µM | 0.00349 µM | 0.0258 µM | 0.00621 µM | > 33.3 µM | 0.0315 µM | 11.3 µM | 0.014 µM | > 33.3 µM |
| COc1ccc(-c2cc(-c3ccc(Cl)cc3)nc(SCCCCCCC(=O)NO)n2)cc1 | 1.88 µM | 11.5 µM | 1.74 µM | 8.89 µM | 1.76 µM | 15.4 µM | 1.73 µM | > 50 µM | 1.66 µM | 12.5 µM | 1.42 µM | > 50 µM | 2.01 µM | 8.37 µM | 1.35 µM | 7.16 µM | 0.758 µM | 3.05 µM | 1.12 µM | > 50 µM |
| Cc1cc(C)c(O)c(CNCCCNCc2cc(C)cc(C)c2O)c1 | 1.89 µM | 3.89 µM | 1.93 µM | 4.45 µM | 5.19 µM | 17.7 µM | 1.67 µM | 3.36 µM | 4.23 µM | 19.5 µM | 1.73 µM | 4.29 µM | 1.45 µM | 2.82 µM | 2.99 µM | 9.49 µM | 2.22 µM | 12.1 µM | 3.03 µM | 8.72 µM |
| COc1ccc(C(=O)c2cc(C)c(OC)c(C)c2)c(OC)c1N(C(=O)CCl)C(=O)CCl | 0.104 µM | 17.6 µM | 0.149 µM | 18.9 µM | 0.0388 µM | 16.8 µM | 0.0657 µM | > 38.6 µM | 0.101 µM | > 53.6 µM | 0.0445 µM | 44.4 µM | 0.0803 µM | 7.35 µM | 0.0638 µM | 10.8 µM | 0.0829 µM | 24.9 µM | 0.118 µM | 15.1 µM |
| O=C1CCC(N2C(=O)c3cccc(NCCOCCOCCNC(=O)c4cc5c(o4)C(=O)c4ccccc4C5=O)c3C2=O)C(=O)N1 (centres undefined) | 1.98 µM | 3.94 µM | 2.29 µM | 7.31 µM | 1.82 µM | 3.25 µM | 1.35 µM | 3.54 µM | 1.67 µM | 3.07 µM | 2.46 µM | 8.05 µM | 1.89 µM | 3.57 µM | 2.32 µM | 6.9 µM | 3.51 µM | 12.6 µM | 2.43 µM | 7.85 µM |
| CN1CCN(Cc2ccc(NC(=O)c3cccc(C#Cc4c(N)ncc5ccc(F)cc45)c3)cc2C(F)(F)F)CC1 | 0.737 µM | 1.66 µM | 0.545 µM | 1.21 µM | 0.838 µM | 1.59 µM | 0.768 µM | 1.53 µM | 0.849 µM | 1.76 µM | 1.05 µM | 2.65 µM | 0.969 µM | 1.84 µM | 0.816 µM | 1.61 µM | 0.533 µM | 1.27 µM | 1.03 µM | 2.59 µM |
| NC(N)=NC(N)=Nc1ccc(S(N)(=O)=O)cc1 | – | > 100 µM | – | > 100 µM | – | > 100 µM | – | > 100 µM | – | > 100 µM | – | > 100 µM | – | > 100 µM | – | > 100 µM | – | > 100 µM | – | > 100 µM |
| CC(C)Cc1ccc(C(C)/C=C2\CCC(CN3CCCCC3)C2=O)cc1 (centres undefined) | – | 15.6 µM | – | 17.2 µM | – | 31 µM | – | 4.08 µM | – | 31.6 µM | – | 45.5 µM | – | 17.7 µM | – | 12.7 µM | – | 23.7 µM | – | 6.65 µM |
| CCN(CC)CCOc1ccc(Cc2ccccc2)cc1 | 16.1 µM | 31.5 µM | 28.2 µM | > 100 µM | 32.7 µM | > 100 µM | 27.6 µM | > 100 µM | 28.5 µM | > 100 µM | 25.5 µM | > 100 µM | 38.7 µM | > 100 µM | 34.8 µM | > 100 µM | 18.4 µM | > 100 µM | 20.7 µM | 76.1 µM |
| CCC1(N)C(=O)OCc2c1cc1n(c2=O)Cc2cc3ccccc3nc2-1 (centres undefined) | 16.7 µM | > 100 µM | 49.3 µM | > 100 µM | 5.79 µM | > 68.7 µM and 21.2 µM | 2.82 µM | > 100 µM | 30 µM | > 100 µM | 5.78 µM | > 100 µM and 18.4 µM | 14.1 µM | 41.1 µM and > 100 µM | 6.51 µM | 23.4 µM and > 100 µM | 4.43 µM | 20.9 µM and 17.4 µM | 3.66 µM | 81.5 µM and > 100 µM |
| CCN(CC)CCC(=O)N1C/C(=C/c2ccccc2)C(=O)/C(=C\c2ccccc2)C1 | – | 6.74 µM | – | 2.57 µM | – | 12.5 µM | – | 1.69 µM | – | 9.76 µM | – | 4.07 µM | – | 1.94 µM | – | 1.02 µM | – | 3.78 µM | – | 0.568 µM |
